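GI50 = concentration required for 50% inhibition of growth. TGI is the concentration that stops growth completely.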
What was measured:
Experiment in all cases: inhibition of tumour cell growth, NCI panel, 384-well format; in the data active = GI50 below about 0.43 µM; inactive = the rest
[1] = tested on: 786-0 renal
[2] = tested on: A498 renal
[3] = tested on: A549 NSCLC
[4] = tested on: ACHN renal
[5] = tested on: BT-549 breast
[6] = tested on: CAKI-1 renal
[7] = tested on: CCRF-CEM leukemia
[8] = tested on: COLO 205 colon
[9] = tested on: DU-145 prostate
[10] = tested on: HCC-2998 colon
[11] = tested on: HCT-116 colon
[12] = tested on: HCT-15 colon
[13] = tested on: HL-60(TB) leukemia
[14] = tested on: HOP-62 NSCLC
[15] = tested on: HS 578T breast
[16] = tested on: HT29 colon
[17] = tested on: IGROV1 ovarian
[18] = tested on: K-562 leukemia
[19] = tested on: KM12 colon
[20] = tested on: LOX IMVI melanoma
[21] = tested on: M14 melanoma
[22] = tested on: MALME-3M melanoma
[23] = tested on: MCF7 breast
[24] = tested on: MDA-MB-231 breast
[25] = tested on: MDA-MB-435 melanoma
[26] = tested on: MDA-MB-468 breast
[27] = tested on: MOLT-4 leukemia
[28] = tested on: NCI-H226 lung
[29] = tested on: NCI-H23 lung
[30] = tested on: NCI-H322M lung
[31] = tested on: NCI-H522 lung
[32] = tested on: NCI/ADR-RES ovarian
[33] = tested on: OVCAR-3 ovarian
[34] = tested on: OVCAR-4 ovarian
[35] = tested on: OVCAR-5 ovarian
[36] = tested on: OVCAR-8 ovarian
[37] = tested on: PC-3 prostate
[38] = tested on: RPMI-8226 leukemia
[39] = tested on: RXF 393 renal
[40] = tested on: SF-268 CNS
[41] = tested on: SF-295 CNS
[42] = tested on: SF-539 CNS
[43] = tested on: SK-MEL-2 melanoma
[44] = tested on: SK-MEL-28 melanoma
[45] = tested on: SK-MEL-5 melanoma
[46] = tested on: SK-OV-3 ovarian
[47] = tested on: SN12C renal
[48] = tested on: SNB-19 CNS
[49] = tested on: SNB-75 CNS
[50] = tested on: SW-620 colon
[51] = tested on: T-47D breast
[52] = tested on: TK-10 renal
[53] = tested on: U251 glioblastoma
[54] = tested on: UACC-257 melanoma
[55] = tested on: UACC-62 melanoma
[56] = tested on: UO-31 renal

COc1c(OC[C@H](O)CN2CCOCC2)ccc2c3n(c(=NC(=O)c4cccnc4C)nc12)CCN3
active: GI50 [13] 0.0145 µM | GI50 [17] 0.111 µM | GI50 [23] 0.0879 µM | GI50 [27] 0.16 µM | GI50 [46] 0.413 µM | GI50 [49] 0.124 µM | GI50 [51] 0.0446 µM
inactive: GI50 [1] > 100 µM | GI50 [2] > 100 µM | GI50 [3] > 100 µM | GI50 [4] > 100 µM | GI50 [5] 38.6 µM | GI50 [6] > 100 µM | GI50 [7] 4.36 µM | GI50 [8] > 100 µM | GI50 [9] > 100 µM | GI50 [10] > 100 µM | GI50 [11] > 100 µM | GI50 [12] > 100 µM | GI50 [14] > 100 µM | GI50 [15] 3.51 µM | GI50 [16] > 100 µM | GI50 [18] > 100 µM | GI50 [19] > 100 µM | GI50 [20] > 100 µM | GI50 [21] > 100 µM | GI50 [22] > 100 µM | GI50 [24] > 100 µM | GI50 [25] > 100 µM | GI50 [26] 0.439 µM | GI50 [28] > 100 µM | GI50 [29] > 100 µM | GI50 [30] 67.1 µM | GI50 [31] > 100 µM | GI50 [32] > 100 µM | GI50 [33] > 100 µM | GI50 [34] > 100 µM | GI50 [35] > 100 µM | GI50 [36] > 100 µM | GI50 [37] 0.657 µM | GI50 [38] > 100 µM | GI50 [39] > 100 µM | GI50 [40] > 100 µM | GI50 [41] > 100 µM | GI50 [42] > 100 µM | GI50 [43] > 100 µM | GI50 [44] 55.1 µM | GI50 [45] > 100 µM | GI50 [47] > 100 µM | GI50 [48] > 100 µM | GI50 [50] > 100 µM | GI50 [52] 2.86 µM | GI50 [53] > 100 µM | GI50 [54] > 100 µM | GI50 [55] > 100 µM | GI50 [56] > 100 µM
0.573 µM: TGI [51]
> 100 µM: TGI [1] | TGI [2] | TGI [3] | TGI [4] | TGI [5] | TGI [6] | TGI [7] | TGI [8] | TGI [9] | TGI [10] | TGI [11] | TGI [12] | TGI [13] | TGI [14] | TGI [15] | TGI [16] | TGI [17] | TGI [18] | TGI [19] | TGI [20] | TGI [21] | TGI [22] | TGI [23] | TGI [24] | TGI [25] | TGI [26] | TGI [27] | TGI [28] | TGI [29] | TGI [30] | TGI [31] | TGI [32] | TGI [33] | TGI [34] | TGI [35] | TGI [36] | TGI [37] | TGI [38] | TGI [39] | TGI [40] | TGI [41] | TGI [42] | TGI [43] | TGI [44] | TGI [45] | TGI [46] | TGI [47] | TGI [48] | TGI [49] | TGI [50] | TGI [52] | TGI [53] | TGI [54] | TGI [55] | TGI [56]

— PubChem BioAssay (NCI)
